Assay results from ChEMBL document CHEMBL5214903, “Diversity-oriented synthesis as a tool to expand the chemical space of DNA-encoded libraries” (Bioorg Med Chem, 2021).
One block for each molecule: values may come before it.

Key:
[1] = biological target: Bromodomain-containing protein 3 (Homo sapiens, UniProt Q15059); assay: Binding affinity to recombinant human BRD3 bromodomain-1 (44 to 168 residues) expressed in Escherichia coli BL21 (DE3) cells assessed as inhibition constant by fluorescence polarization assay
[2] = biological target: Transcriptional enhancer factor TEF-3 (Homo sapiens, UniProt Q15561); assay: Inhibition of YAP binding to human TEAD4 by fluorescence polarization assay
[3] = Inhibition of Aurora (unknown origin); design: species or system Homo sapiens
[4] = biological target: E3 ubiquitin-protein ligase Mdm2 (Homo sapiens, UniProt Q00987); assay: Binding affinity to MDM2 (unknown origin) assessed as dissociation constant
[5] = biological target: Histone acetyltransferase p300 (Homo sapiens, UniProt Q09472); assay: Inhibition of p300 (unknown origin) using [3H]-Ac-CoA as substrate preincubated for 15 mins followed by substrate addition and measured after 60 mins by Flashplate assay
Sequence of Histone acetyltransferase p300 (Q09472 whole entry): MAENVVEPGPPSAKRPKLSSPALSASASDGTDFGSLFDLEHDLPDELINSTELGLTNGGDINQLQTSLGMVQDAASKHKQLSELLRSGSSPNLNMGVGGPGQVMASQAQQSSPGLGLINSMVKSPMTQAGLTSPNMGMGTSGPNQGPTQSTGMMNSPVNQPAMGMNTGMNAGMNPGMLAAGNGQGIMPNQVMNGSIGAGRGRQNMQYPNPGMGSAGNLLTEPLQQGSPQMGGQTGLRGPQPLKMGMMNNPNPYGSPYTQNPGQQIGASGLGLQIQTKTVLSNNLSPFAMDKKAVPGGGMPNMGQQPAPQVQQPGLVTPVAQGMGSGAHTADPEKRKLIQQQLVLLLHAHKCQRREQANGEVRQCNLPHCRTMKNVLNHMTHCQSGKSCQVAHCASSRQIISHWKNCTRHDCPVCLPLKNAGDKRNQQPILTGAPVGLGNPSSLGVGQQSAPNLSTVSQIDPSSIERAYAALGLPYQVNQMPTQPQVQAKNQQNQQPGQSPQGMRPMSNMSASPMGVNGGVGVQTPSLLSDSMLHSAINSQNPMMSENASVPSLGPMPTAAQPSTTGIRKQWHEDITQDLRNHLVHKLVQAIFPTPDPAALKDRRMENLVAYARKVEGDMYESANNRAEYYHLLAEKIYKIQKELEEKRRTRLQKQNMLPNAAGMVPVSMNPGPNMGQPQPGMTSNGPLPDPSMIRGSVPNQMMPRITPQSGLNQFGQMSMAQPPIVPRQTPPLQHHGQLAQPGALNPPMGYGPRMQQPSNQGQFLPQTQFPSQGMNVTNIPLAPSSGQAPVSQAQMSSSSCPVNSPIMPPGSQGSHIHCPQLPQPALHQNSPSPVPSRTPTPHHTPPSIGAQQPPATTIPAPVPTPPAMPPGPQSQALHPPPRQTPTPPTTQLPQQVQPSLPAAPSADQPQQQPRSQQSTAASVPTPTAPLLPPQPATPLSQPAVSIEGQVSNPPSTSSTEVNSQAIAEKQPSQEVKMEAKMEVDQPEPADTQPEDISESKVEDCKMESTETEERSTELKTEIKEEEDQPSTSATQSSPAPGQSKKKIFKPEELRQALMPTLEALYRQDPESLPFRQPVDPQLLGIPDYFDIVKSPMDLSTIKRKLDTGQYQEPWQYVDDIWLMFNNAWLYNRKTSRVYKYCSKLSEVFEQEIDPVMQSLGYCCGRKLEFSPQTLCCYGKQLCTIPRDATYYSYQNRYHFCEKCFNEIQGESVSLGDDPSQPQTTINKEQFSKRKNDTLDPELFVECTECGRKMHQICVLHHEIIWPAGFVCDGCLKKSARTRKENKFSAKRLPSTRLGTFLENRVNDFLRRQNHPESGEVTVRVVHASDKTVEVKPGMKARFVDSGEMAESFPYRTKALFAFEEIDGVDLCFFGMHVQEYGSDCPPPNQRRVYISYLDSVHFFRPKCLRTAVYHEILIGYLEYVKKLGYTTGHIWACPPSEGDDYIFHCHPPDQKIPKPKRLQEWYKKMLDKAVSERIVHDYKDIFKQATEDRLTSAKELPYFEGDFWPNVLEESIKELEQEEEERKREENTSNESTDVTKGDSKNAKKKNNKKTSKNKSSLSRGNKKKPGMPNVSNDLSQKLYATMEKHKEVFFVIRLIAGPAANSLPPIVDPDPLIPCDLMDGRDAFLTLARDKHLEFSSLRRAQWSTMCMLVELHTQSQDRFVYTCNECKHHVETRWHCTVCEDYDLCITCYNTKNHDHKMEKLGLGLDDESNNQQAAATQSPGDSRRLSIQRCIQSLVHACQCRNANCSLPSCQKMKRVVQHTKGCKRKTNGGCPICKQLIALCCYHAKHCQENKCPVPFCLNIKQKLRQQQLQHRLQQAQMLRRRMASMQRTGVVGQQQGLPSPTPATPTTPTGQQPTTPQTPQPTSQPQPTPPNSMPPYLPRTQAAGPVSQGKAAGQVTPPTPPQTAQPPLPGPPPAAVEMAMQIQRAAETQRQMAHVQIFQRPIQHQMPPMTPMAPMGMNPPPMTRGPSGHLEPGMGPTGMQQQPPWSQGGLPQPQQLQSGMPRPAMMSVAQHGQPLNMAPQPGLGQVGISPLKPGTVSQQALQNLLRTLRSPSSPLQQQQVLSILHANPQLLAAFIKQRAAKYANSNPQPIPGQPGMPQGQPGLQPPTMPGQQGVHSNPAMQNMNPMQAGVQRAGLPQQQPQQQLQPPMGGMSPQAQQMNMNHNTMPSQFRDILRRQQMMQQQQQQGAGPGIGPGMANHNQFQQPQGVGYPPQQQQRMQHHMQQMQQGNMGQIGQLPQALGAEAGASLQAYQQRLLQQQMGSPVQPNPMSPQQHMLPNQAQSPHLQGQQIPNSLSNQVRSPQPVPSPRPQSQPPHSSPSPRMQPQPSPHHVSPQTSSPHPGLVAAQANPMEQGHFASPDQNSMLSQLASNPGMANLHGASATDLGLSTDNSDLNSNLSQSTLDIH

Sequence of Transcriptional enhancer factor TEF-3 (Q15561 whole entry): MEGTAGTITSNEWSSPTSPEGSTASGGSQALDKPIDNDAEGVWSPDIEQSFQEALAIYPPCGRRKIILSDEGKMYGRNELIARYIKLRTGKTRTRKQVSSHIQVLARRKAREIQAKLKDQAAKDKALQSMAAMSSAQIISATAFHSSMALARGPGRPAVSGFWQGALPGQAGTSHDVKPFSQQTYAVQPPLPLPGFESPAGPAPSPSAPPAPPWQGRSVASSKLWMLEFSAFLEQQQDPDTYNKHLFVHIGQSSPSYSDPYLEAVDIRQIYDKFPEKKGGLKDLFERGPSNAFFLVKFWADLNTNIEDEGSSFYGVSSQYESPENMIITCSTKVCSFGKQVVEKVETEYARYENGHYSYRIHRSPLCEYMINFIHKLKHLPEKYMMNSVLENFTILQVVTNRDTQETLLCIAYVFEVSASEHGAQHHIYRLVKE
Sequence of Bromodomain-containing protein 3 (Q15059 whole entry, the tested form may be a part): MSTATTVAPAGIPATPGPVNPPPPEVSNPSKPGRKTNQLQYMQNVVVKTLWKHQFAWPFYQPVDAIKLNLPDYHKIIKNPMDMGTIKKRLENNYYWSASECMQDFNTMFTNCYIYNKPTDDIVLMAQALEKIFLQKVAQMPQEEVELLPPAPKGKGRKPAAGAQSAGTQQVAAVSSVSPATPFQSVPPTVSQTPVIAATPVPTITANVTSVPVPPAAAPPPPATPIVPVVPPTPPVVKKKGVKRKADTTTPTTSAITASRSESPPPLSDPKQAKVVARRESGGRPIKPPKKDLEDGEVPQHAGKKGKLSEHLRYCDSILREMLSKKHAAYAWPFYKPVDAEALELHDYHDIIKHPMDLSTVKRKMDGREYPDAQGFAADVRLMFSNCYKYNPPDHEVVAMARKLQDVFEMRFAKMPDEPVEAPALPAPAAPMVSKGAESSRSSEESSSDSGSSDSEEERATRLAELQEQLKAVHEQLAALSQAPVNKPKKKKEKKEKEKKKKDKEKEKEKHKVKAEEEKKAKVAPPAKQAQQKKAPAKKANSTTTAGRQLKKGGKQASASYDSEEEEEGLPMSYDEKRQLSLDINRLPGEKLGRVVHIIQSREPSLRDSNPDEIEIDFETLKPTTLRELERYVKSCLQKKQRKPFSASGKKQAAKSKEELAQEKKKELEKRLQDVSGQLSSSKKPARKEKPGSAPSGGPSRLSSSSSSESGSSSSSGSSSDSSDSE
Sequence of E3 ubiquitin-protein ligase Mdm2 (Q00987 whole entry): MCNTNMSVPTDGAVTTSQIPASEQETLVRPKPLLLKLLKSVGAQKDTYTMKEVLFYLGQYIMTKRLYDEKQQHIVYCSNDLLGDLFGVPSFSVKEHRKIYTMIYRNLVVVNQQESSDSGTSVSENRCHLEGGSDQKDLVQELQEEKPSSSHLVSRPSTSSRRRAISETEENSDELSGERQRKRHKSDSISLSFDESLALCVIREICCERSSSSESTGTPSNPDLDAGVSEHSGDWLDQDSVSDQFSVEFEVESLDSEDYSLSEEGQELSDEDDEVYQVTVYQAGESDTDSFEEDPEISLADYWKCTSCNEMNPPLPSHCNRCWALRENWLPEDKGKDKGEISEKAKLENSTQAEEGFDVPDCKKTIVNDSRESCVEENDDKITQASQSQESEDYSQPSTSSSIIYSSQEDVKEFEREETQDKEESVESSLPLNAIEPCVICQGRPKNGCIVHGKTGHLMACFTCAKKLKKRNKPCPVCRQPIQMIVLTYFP

Structure (SMILES): Cc1ccn2cc(Cn3cc(CN(C(=O)CCC(=O)OC(C)(C)C)C(C(=O)NC4C[C@@H]5CC[C@]4(C)C5(C)C)c4c[nH]c5cc(Cl)ccc45)nn3)nc2c1 (stereo not given in full)
IC50 [2]: 0.51 µM

Structure (SMILES): CC(C)(C)OC(=O)C1CC2CSCN2C12C(=O)Nc1cc(-c3ccc4c(c3)CC(=O)N4)ccc12 (stereo not given)
IC50 [3]: 45 µM

Structure (SMILES): Cc1ccc(NC(=O)Cn2cc(CN(C(=O)CCC(=O)OC(C)(C)C)C(C(=O)NC3CCCCC3)c3c[nH]c4cc(Cl)ccc34)nn2)c(C)c1 (stereo not given)
Kd [4]: 33 µM

Now from value to molecule:

Ki [1]: 0.131 µM
Structure (SMILES): COc1cc(/C=C/C(=O)Nc2ccc3c(c2)C2(C(=O)N3)C(C(=O)OC(C)(C)C)CC3CSCN32)cc(OC)c1OC (stereo not given)

IC50 [5]: 45 µM
Structure (SMILES): COC(=O)C1CC2CSCN2C12C(=O)Nc1ccc(NCc3ccc([N+](=O)[O-])cc3OCC(=O)O)cc12 (stereo not given)
